Results published in BigSolDB 2.1.

O=C(O)CCCCCCCC(=O)O
Conditions	solubility (mole fraction)
in acetic acid, 289.05 K	0.022
in acetic acid, 293.95 K	0.0279
in acetic acid, 298.85 K	0.0355
in acetic acid, 303.45 K	0.0452
in acetic acid, 308.35 K	0.0582
in acetic acid, 313.35 K	0.0746
in acetic acid, 318.85 K	0.0964
in acetic acid, 325.35 K	0.132
in acetic acid, 330.95 K	0.169
in acetic acid, 337.35 K	0.223
in acetic acid, 341.75 K	0.265
in acetone, 276.65 K	0.00895
in acetone, 279.45 K	0.0103
in acetone, 283.15 K	0.0129
in acetone, 286.95 K	0.0158
in acetone, 294.15 K	0.0228
in acetone, 297.55 K	0.0275
in acetone, 303.05 K	0.0365
in acetone, 306.55 K	0.0438
in acetone, 312.05 K	0.0587
in acetone, 316.15 K	0.0732
in acetone, 320.95 K	0.1
in acetone, 325.35 K	0.12
in ethanol, 276.75 K	0.0212
in ethanol, 280.05 K	0.0253
in ethanol, 283.25 K	0.0292
in ethanol, 288.15 K	0.0362
in ethanol, 293.05 K	0.0449
in ethanol, 297.55 K	0.0546
in ethanol, 304.05 K	0.069
in ethanol, 307.35 K	0.083
in ethanol, 312.05 K	0.0969
in ethanol, 317.05 K	0.117
in ethanol, 322.05 K	0.143
in ethanol, 326.85 K	0.166
in ethanol, 332.05 K	0.202
in ethanol, 336.55 K	0.234
in ethylene glycol, 278.65 K	0.0083
in ethylene glycol, 283.35 K	0.01
in ethylene glycol, 288.05 K	0.0105
in ethylene glycol, 292.85 K	0.0144
in ethylene glycol, 297.35 K	0.0241
in ethylene glycol, 303.35 K	0.03
in ethylene glycol, 307.35 K	0.0395
in ethylene glycol, 312.25 K	0.0496
in ethylene glycol, 317.05 K	0.0622
in ethylene glycol, 321.55 K	0.0791
in ethylene glycol, 326.45 K	0.103
in ethylene glycol, 331.35 K	0.131
in ethylene glycol, 336.15 K	0.167
